In brackets after ≈: the same amount, converted by molar mass.
Legend:
[1] = system: carbapenem sensitive Pseudomonas aeruginosa; assay: MIC by broth micro-dilution (CLSI), carbapenem sensitive P. aeruginosa; type: cell-based; conditions: Pseudomonas aeruginosa, ATCC27853, Meropenem susceptible P. aeruginosa ATCC27853; read-out: MIC
[2] = system: carbapenemase producing K. pneumoniae; assay: MIC by broth micro-dilution (CLSI), carbapenemase producing K. pneumoniae; type: cell-based, Klebsiella pneumoniae; conditions: Klebsiella pneumoniae, ATCCBAA1705, KPC-2 K. pneumoniae ATCC BAA-1705; read-out: MIC
[3] = system: methicillin-sensitive Staphylococcus aureus; assay: MIC by broth micro-dilution (CLSI), methicillin-sensitive S. aureus; type: cell-based; conditions: Staphylococcus aureus, ATCC 29213 / MSSA, MSSA S. aureus ATCC29213; read-out: MIC
[4] = system: extended spectrum β lactamase (ESBL) SHV18 producing Klebsiella pneumoniae; assay: MIC by broth micro-dilution (CLSI), ESBL SHV18 producing K. pneumoniae; type: cell-based; conditions: Klebsiella pneumoniae, ATCC700603, 22 h, ESBL +ve (SHV-18) K. pneumoniae ATCC700603; read-out: MIC
[5] = system: carbapenem sensitive Escherichia coli; assay: MIC by broth micro-dilution (CLSI), carbapenem sensitive E. coli; type: cell-based; conditions: Escherichia coli, ATCC25922, ESBL −ve E. coli ATCC25922; read-out: MIC

Compound	MIC [1] [µg/mL]	MIC [2] [µg/mL]	MIC [3] [µg/mL]	MIC [4] [µg/mL]	MIC [5] [µg/mL]
C[C@@H](NC(=O)C(F)F)[C@H]1C(=O)N2C(C(=O)O)=C(S[C@@H]3CN[C@H](C(=O)NCCO)C3)[C@H](C)[C@H]12 [Example 104]	128 (≈ 269 µM)	4 (≈ 8.39 µM)	4 (≈ 8.39 µM)	1 (≈ 2.1 µM)	0.5 (≈ 1.05 µM)
CN[C@H]1CCN(C(=O)[C@@H]2C[C@H](SC3=C(C(=O)O)N4C(=O)[C@H]([C@@H](C)NC(=O)C(F)F)[C@H]4[C@H]3C)CN2)C1 [Example 106]	4 (≈ 7.76 µM)	4 (≈ 7.76 µM)	4 (≈ 7.76 µM)	4 (≈ 7.76 µM)	1 (≈ 1.94 µM)
C[C@@H](NC(=O)C(F)F)[C@H]1C(=O)N2C(C(=O)O)=C(S[C@@H]3CN[C@H](C(=O)N4CC[C@H](N(C)C)C4)C3)[C@H](C)[C@H]12 [Example 107]	16 (≈ 30.2 µM)	4 (≈ 7.55 µM)	4 (≈ 7.55 µM)	4 (≈ 7.55 µM)	1 (≈ 1.89 µM)
C[C@@H](NC(=O)C(F)F)[C@H]1C(=O)N2C(C(=O)O)=C(S[C@H]3C[C@@H](C(=O)N(C)C)N(C=N)C3)[C@H](C)[C@H]12 [Example 108]	128 (≈ 263 µM)	16 (≈ 32.8 µM)	2 (≈ 4.1 µM)	4 (≈ 8.2 µM)	1 (≈ 2.05 µM)
CCOC(=O)C(=O)N[C@H](C)[C@H]1C(=O)N2C(C(=O)O)=C(S[C@@H]3CN[C@H](C(=O)N4CC[C@H](N)C4)C3)[C@H](C)[C@H]12 [Example 109]	4 (≈ 7.64 µM)	16 (≈ 30.6 µM)	8 (≈ 15.3 µM)	4 (≈ 7.64 µM)	4 (≈ 7.64 µM)
C[C@@H](NC(=O)C(F)F)[C@H]1C(=O)N2C(C(=O)O)=C(S[C@@H]3CN[C@H](C(=O)N4CC[C@H](NS(C)(=O)=O)C4)C3)[C@H](C)[C@H]12 [Example 110]	32 (≈ 55.2 µM)	4 (≈ 6.9 µM)	4 (≈ 6.9 µM)	2 (≈ 3.45 µM)	0.5 (≈ 0.863 µM)
C[C@@H](NC(=O)C(F)F)[C@H]1C(=O)N2C(C(=O)O)=C(S[C@@H]3CN[C@H](C(=O)NCCC(=O)NOCc4ccccc4)C3)[C@H](C)[C@H]12 [Example 111]	> 128	16 (≈ 26.2 µM)	4 (≈ 6.56 µM)	16 (≈ 26.2 µM)	1 (≈ 1.64 µM)
CNCC(=O)N[C@H](C)[C@H]1C(=O)N2C(C(=O)O)=C(S[C@@H]3CN[C@H](C(=O)N(C)C)C3)[C@H](C)[C@H]12 [Example 112]	8 (≈ 17.6 µM)	4 (≈ 8.82 µM)	64 (≈ 141 µM)	4 (≈ 8.82 µM)	2 (≈ 4.41 µM)
CC(C)C[C@@H](N)C(=O)N[C@H](C)[C@H]1C(=O)N2C(C(=O)O)=C(S[C@@H]3CN[C@H](C(=O)N(C)C)C3)[C@H](C)[C@H]12 [Example 113]	> 128	16 (≈ 32.3 µM)	16 (≈ 32.3 µM)	32 (≈ 64.6 µM)	4 (≈ 8.07 µM)
CONC(=O)CCNC(=O)[C@@H]1C[C@H](SC2=C(C(=O)O)N3C(=O)[C@H]([C@@H](C)NC(=O)C(F)F)[C@H]3[C@H]2C)CN1 [Example 115]	> 128	8 (≈ 15 µM)	8 (≈ 15 µM)	2 (≈ 3.75 µM)	0.5 (≈ 0.937 µM)
C[C@@H](NC(=O)C(F)F)[C@H]1C(=O)N2C(C(=O)O)=C(S[C@@H]3CN[C@H](C(=O)NCCC(=O)NCCO)C3)[C@H](C)[C@H]12 [Example 116]	> 128	4 (≈ 7.3 µM)	8 (≈ 14.6 µM)	2 (≈ 3.65 µM)	0.5 (≈ 0.913 µM)
C[C@@H](NC(=O)C(F)F)[C@H]1C(=O)N2C(C(=O)O)=C(S[C@@H]3CN[C@H](C(=O)N4CC[C@H](NS(=O)(=O)N(C)C)C4)C3)[C@H](C)[C@H]12 [Example 117]	> 128	4 (≈ 6.57 µM)	2 (≈ 3.29 µM)	2 (≈ 3.29 µM)	0.5 (≈ 0.821 µM)
C[C@@H](NC(=O)C(F)F)[C@H]1C(=O)N2C(C(=O)O)=C(S[C@@H]3CN[C@H](C(=O)N4CC[C@H](NC(=O)N(C)C)C4)C3)[C@H](C)[C@H]12 [Example 118]	64 (≈ 112 µM)	8 (≈ 14 µM)	4 (≈ 6.99 µM)	2 (≈ 3.49 µM)	0.5 (≈ 0.873 µM)
C[C@@H](NC(=O)C(F)F)[C@H]1C(=O)N2C(C(=O)O)=C(S[C@@H]3CN[C@H](C(=O)N4CC[C@H](NC(=O)CC#N)C4)C3)[C@H](C)[C@H]12 [Example 119]	16 (≈ 28.1 µM)	8 (≈ 14.1 µM)	2 (≈ 3.52 µM)	1 (≈ 1.76 µM)	0.5 (≈ 0.879 µM)
C[C@@H](NC(=O)C(F)F)[C@H]1C(=O)N2C(C(=O)O)=C(S[C@@H]3CN[C@H](C(=O)N4CCNCC4)C3)[C@H](C)[C@H]12 [Example 120]	4 (≈ 7.98 µM)	4 (≈ 7.98 µM)	2 (≈ 3.99 µM)	4 (≈ 7.98 µM)	0.5 (≈ 0.997 µM)
C[C@@H](NC(=O)C(F)F)[C@H]1C(=O)N2C(C(=O)O)=C(S[C@@H]3CN[C@H](C(=O)N4CC[C@H](NC(=O)CN)C4)C3)[C@H](C)[C@H]12 [Example 121]	8 (≈ 14.3 µM)	4 (≈ 7.16 µM)	1 (≈ 1.79 µM)	4 (≈ 7.16 µM)	0.5 (≈ 0.895 µM)

— patent US11180504B2 (ORCHID PHARMA LTD., priority 2016, dated 2021)
